Test results as given in PubChem BioAssay AID248 (DTP/NCI, 2004).
“And” between values parts separate entries of the source, which are not always exact repeats. Equal values may be shown once. Inconclusive results and toxic doses are left out. Cut-off read from the data, not from the text of the source: active = T/C of 150% or more; inactive = T/C below 125%.

Tested on: L1210 leukemia ip in BDF1 mice, survival T/C
Experiment: NCI In Vivo Anticancer Drug Screen. Data for tumor model L1210 Leukemia (intraperitoneal) in B6D2F1 (BDF1) mice
Conditions: endpoint: mean survival time, higher = longer survival
Method in brief: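 Value reflects the ratio of survival in compound-treated mice to survival in vehicle-treated controls, with both groups carrying the same transplanted tumor.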

[1] = dose: 50.0 mg/kg/injection, schedule: Q01DX001 (ip), vehicle: Klucel (hydroxypropylcellulose) (HPC)
[2] = dose: 100.0 mg/kg/injection, schedule: Q01DX001 (ip), vehicle: Klucel (hydroxypropylcellulose) (HPC)
[3] = dose: 200.0 mg/kg/injection, schedule: Q01DX001 (ip), vehicle: Klucel (hydroxypropylcellulose) (HPC)
[4] = dose: 100.0 mg/kg/injection, schedule: Q04DX003 (ip), vehicle: acetone
[5] = dose: 200.0 mg/kg/injection, schedule: Q04DX003 (ip), vehicle: acetone
[6] = dose: 400.0 mg/kg/injection, schedule: Q04DX003 (ip), vehicle: acetone
[7] = dose: 100.0 mg/kg/injection, schedule: Q01DX009 (ip), vehicle: Klucel (hydroxypropylcellulose) (HPC)
[8] = dose: 100.0 mg/kg/injection, schedule: Q04DX003 (ip), vehicle: Klucel (hydroxypropylcellulose) (HPC)
[9] = dose: 200.0 mg/kg/injection, schedule: Q01DX009 (ip), vehicle: Klucel (hydroxypropylcellulose) (HPC)
[10] = dose: 200.0 mg/kg/injection, schedule: Q04DX003 (ip), vehicle: Klucel (hydroxypropylcellulose) (HPC)
[11] = dose: 400.0 mg/kg/injection, schedule: Q04DX003 (ip), vehicle: Klucel (hydroxypropylcellulose) (HPC)
[12] = dose: 50.0 mg/kg/injection, schedule: Q01DX009 (ip), vehicle: saline with Tween-80
[13] = dose: 100.0 mg/kg/injection, schedule: Q04DX003 (ip), vehicle: saline with Tween-80
[14] = dose: 200.0 mg/kg/injection, schedule: Q04DX003 (ip), vehicle: saline with Tween-80
[15] = dose: 400.0 mg/kg/injection, schedule: Q04DX003 (ip), vehicle: saline with Tween-80
[16] = dose: 100.0 mg/kg/injection, schedule: Q01DX009 (ip), vehicle: saline with Tween-80
[17] = dose: 100.0 mg/kg/injection, schedule: Q01DX001 (ip), vehicle: saline
[18] = dose: 200.0 mg/kg/injection, schedule: Q01DX001 (ip), vehicle: saline
[19] = dose: 400.0 mg/kg/injection, schedule: Q01DX001 (ip), vehicle: saline

Measured: T/C

O=C(Nc1cc([N+](=O)[O-])cc([N+](=O)[O-])c1O)C(F)(F)F
inactive: dose: 25.0 mg/kg/injection, schedule: Q01DX001 (ip), vehicle: Klucel (hydroxypropylcellulose) (HPC) 102 % of control | [1] 96 % of control | [2] 100 % of control and 120 % of control | [3] 98 % of control

COC(=O)c1n[nH]c(C)c1N=NN1CCC(C(N)=O)CC1
inactive: dose: 9.38 mg/kg/injection, schedule: Q01DX001 (ip), vehicle: other 118 % of control | dose: 18.75 mg/kg/injection, schedule: Q01DX001 (ip), vehicle: other 109 % of control | dose: 37.5 mg/kg/injection, schedule: Q01DX001 (ip), vehicle: other 101 % of control

COc1ccc(/C2=C/CCCCCC2)cc1
inactive: dose: 50.0 mg/kg/injection, schedule: Q01DX009 (ip), vehicle: acetone 87 % of control | dose: 100.0 mg/kg/injection, schedule: Q01DX009 (ip), vehicle: acetone 92 % of control | [4] 96 % of control | dose: 200.0 mg/kg/injection, schedule: Q01DX009 (ip), vehicle: acetone 95 % of control | [5] 103 % of control | [6] 101 % of control

Nc1ccc2c(c1)S(=O)(=O)c1cc(O)ccc1O2
inactive: [7] 98 % of control | [8] 102 % of control | [9] 95 % of control | [10] 97 % of control | dose: 400.0 mg/kg/injection, schedule: Q01DX009 (ip), vehicle: Klucel (hydroxypropylcellulose) (HPC) 96 % of control | [11] 102 % of control

O=C(O)C(C(=O)c1cccc([N+](=O)[O-])c1)C(=O)c1cccc([N+](=O)[O-])c1
inactive: dose: 200.0 mg/kg/injection, schedule: Q01DX001 (ip), vehicle: carboxymethylcellulose (CMC) 100 % of control | dose: 400.0 mg/kg/injection, schedule: Q01DX001 (ip), vehicle: carboxymethylcellulose (CMC) 94 % of control

O=S(=O)(C(Br)CBr)C(Br)CBr (stereo not given)
inactive: dose: 25.0 mg/kg/injection, schedule: Q01DX009 (ip), vehicle: saline with Tween-80 94 % of control | [12] 107 % of control

Nc1ccc(S(=O)(=O)O)c2cccc(O)c12
inactive: dose: 100.0 mg/kg/injection, schedule: Q04DX002 (ip), vehicle: carboxymethylcellulose (CMC) 103 % of control | [8] 101 % of control | dose: 200.0 mg/kg/injection, schedule: Q04DX002 (ip), vehicle: carboxymethylcellulose (CMC) 107 % of control | [10] 91 % of control | [11] 101 % of control

CCCCCCCCCCCCCCCCOc1ccc2ccccc2c1
inactive: [8] 97 % of control | [10] 102 % of control | [11] 91 % of control

C=CCNc1ccc([N+](=O)[O-])cc1[N+](=O)[O-]
inactive: dose: 100.0 mg/kg/injection, schedule: Q01DX001 (ip), vehicle: steriod suspending solution 91 % of control | dose: 200.0 mg/kg/injection, schedule: Q01DX001 (ip), vehicle: steriod suspending solution 98 % of control

O=C1NC(=O)C(C2CCCCC2)(C2CCCCC2)N1
inactive: dose: 100.0 mg/kg/injection, schedule: Q01DX009 (ip), vehicle: saline 103 % of control | [13] 107 % of control | dose: 200.0 mg/kg/injection, schedule: Q01DX009 (ip), vehicle: saline 94 % of control | [14] 107 % of control | dose: 400.0 mg/kg/injection, schedule: Q01DX009 (ip), vehicle: saline 88 % of control | [15] 93 % of control

CCCCN=C(N)CCl
inactive: dose: 25.0 mg/kg/injection, schedule: Q04DX002 (ip), vehicle: saline 106 % of control | dose: 50.0 mg/kg/injection, schedule: Q04DX002 (ip), vehicle: saline 95 % of control | dose: 100.0 mg/kg/injection, schedule: Q04DX002 (ip), vehicle: saline 124 % of control

C#CC(=O)OC
inactive: dose: 0.78 mg/kg/injection, schedule: Q01DX009 (ip), vehicle: saline 103 % of control | dose: 1.56 mg/kg/injection, schedule: Q01DX009 (ip), vehicle: saline 103 % of control | dose: 1.56 mg/kg/injection, schedule: Q04DX003 (ip), vehicle: saline 103 % of control | dose: 3.12 mg/kg/injection, schedule: Q01DX009 (ip), vehicle: saline 97 % of control | dose: 3.12 mg/kg/injection, schedule: Q04DX003 (ip), vehicle: saline 95 % of control | dose: 4.6 mg/kg/injection, schedule: Q01DX009 (ip), vehicle: saline 98 % of control | dose: 6.25 mg/kg/injection, schedule: Q04DX003 (ip), vehicle: saline 94 % of control | dose: 7.0 mg/kg/injection, schedule: Q01DX009 (ip), vehicle: saline 93 % of control | dose: 10.0 mg/kg/injection, schedule: Q01DX009 (ip), vehicle: saline 101 % of control

C=C[CH2][Sn]([Br])([Br])[CH2]C=C
inactive: [16] 106 % of control | dose: 200.0 mg/kg/injection, schedule: Q01DX009 (ip), vehicle: saline with Tween-80 95 % of control | dose: 400.0 mg/kg/injection, schedule: Q01DX009 (ip), vehicle: saline with Tween-80 95 % of control

Cn1c(=O)c2ncn(CC(O)COc3ccccc3)c2n(C)c1=O (stereo not given)
inactive: [8] 102 % of control | [10] 104 % of control | [11] 101 % of control

Cc1ccccc1S(=O)(=O)c1cccs1
inactive: [17] 98 % of control | [4] 98 % of control | [18] 95 % of control | [5] 104 % of control | [19] 93 % of control | [6] 93 % of control

CCCCOC(=O)c1ccc(OC(=O)Nc2ccc([N+](=O)[O-])cc2OC)cc1
inactive: [1] 93 % of control | dose: 50.0 mg/kg/injection, schedule: Q01DX009 (ip), vehicle: Klucel (hydroxypropylcellulose) (HPC) 96 % of control | dose: 50.0 mg/kg/injection, schedule: Q01DX009 (ip), vehicle: other 101 % of control | dose: 50.0 mg/kg/injection, schedule: Q04DX002 (ip), vehicle: Klucel (hydroxypropylcellulose) (HPC) 97 % of control | dose: 50.0 mg/kg/injection, schedule: Q04DX003 (ip), vehicle: other 98 % of control | [2] 93 % of control | [7] 96 % of control | dose: 100.0 mg/kg/injection, schedule: Q01DX009 (ip), vehicle: other 105 % of control | dose: 100.0 mg/kg/injection, schedule: Q04DX002 (ip), vehicle: Klucel (hydroxypropylcellulose) (HPC) 94 % of control | dose: 100.0 mg/kg/injection, schedule: Q04DX003 (ip), vehicle: other 109 % of control | [3] 92 % of control | [9] 122 % of control | dose: 200.0 mg/kg/injection, schedule: Q01DX009 (ip), vehicle: other 102 % of control | dose: 200.0 mg/kg/injection, schedule: Q04DX002 (ip), vehicle: Klucel (hydroxypropylcellulose) (HPC) 97 % of control | dose: 200.0 mg/kg/injection, schedule: Q04DX003 (ip), vehicle: other 101 % of control | dose: 400.0 mg/kg/injection, schedule: Q01DX001 (ip), vehicle: Klucel (hydroxypropylcellulose) (HPC) 101 % of control | dose: 400.0 mg/kg/injection, schedule: Q04DX002 (ip), vehicle: Klucel (hydroxypropylcellulose) (HPC) 100 % of control | dose: 400.0 mg/kg/injection, schedule: Q04DX003 (ip), vehicle: other 97 % of control

CC(=O)OCC(O)C(O)C(O)C(O)CO (stereo not given)
inactive: [13] 91 % of control | [14] 94 % of control | [15] 91 % of control

CNc1ncnc2c1ccn2C1OC(CO)C(O)C1O (stereo not given)
inactive: dose: 50.0 mg/kg/injection, schedule: Q01DX001 (ip), vehicle: carboxymethylcellulose (CMC) 110 % of control

CC1(C)CCC2CCCCC2O1 (stereo not given)
inactive: [17] 102 % of control | [18] 98 % of control | [19] 96 % of control

Cc1ccc(S(=O)(=O)Oc2ccc(-c3ccc(Br)cc3)cc2)cc1
inactive: dose: 75.0 mg/kg/injection, schedule: Q01DX001 (ip), vehicle: saline 97 % of control | dose: 150.0 mg/kg/injection, schedule: Q01DX001 (ip), vehicle: saline 105 % of control | dose: 300.0 mg/kg/injection, schedule: Q01DX001 (ip), vehicle: saline 105 % of control

CCOC(=O)N/N=C\c1cc(OC)c(OC)c(OC)c1
inactive: [12] 103 % of control | [16] 98 % of control | [13] 102 % of control | [14] 103 % of control
